# Key:
# [1] = system: MCF-7 cells; test: Combination index / drug interaction (CompuSyn, Chou-Talalay), MCF-7; type: cell-based, human
# Method: IC50 values were calculated using GraphPad Prism software.
# According to the theory of T. C.
# [2] = system: MDA-MB-231 cells; conditions: Glibenclamide alone; inhibiting the G1-S phase progression without inducing cell death or differentiation; cited from earlier work
# [3] = system: U-87 μMG cells; test: MTT cytotoxicity assay, U-87 μMG; conditions: Homo sapiens, U-87 MG, read-out: U-87 μMG cell survival
# Method: Glimepiride and its analogs were first prepared as a stock solution in DMSO, and then the drugs were dissolved fresh in culture medium enriched with Tween 80 (final concentration 0.05%).
# Human cancer cells (MCF-7, A549 and U-87 μMG) and normal endothelial cells (HMEC-1) were obtained from American Type Cell Culture (Rockville, MD). The cancer cell lines (MCF-7, A549 and U-87 μMG) were cultured as monolayers in Dulbecco's modified Eagle's medium supplemented with 10% (v/v) fetal bovine serum and 1% (v/v) penicillin/streptomycin mixture (10,000 U/mL penicillin and 10 mg/mL streptomycin) in a 100% humidified atmosphere of 5% CO2 and 95% air at 37 °C. […]
# The cytotoxic activity of the test compounds against cancer cell lines was tested using the standard MTT (3-(4,5-dimethylthiazol-2-yl)-2,5-diphenyltetrazolium bromide) colorimetric assay. […] Plates were gently shaken at room temperature until the formazan was completely dissolved and read at 540 nm using a microplate reader. With the XTT method, there is no dissolution step in DMSO (XTT is reduced to a highly water-soluble, orange product instead of the insoluble formazan), and the plate is read at 450 nm. […] IC50 values were calculated using GraphPad Prism software. […]
# All data are expressed as mean±standard deviation (SD) and presented as a percentage of control (untreated cells) taken as 100%, n=3 (or more). […]
# [4] = system: gliomas; conditions: cited from earlier work
# [5] = weekly doses of 20 mg/m^2; cited from earlier work
# [6] = analog 100-500 μM with Doxorubicin 0.225-0.900 μM, over a wide range of dose combinations
compound,measurement,setting,value
"Cc1ccc(S(=O)(=O)NC(=O)NN2CC3CCCC3C2)cc1 (stereo not drawn) [Gliclazide, 1-(3,3a,4,5,6,6a-hexahydro-1H-cyclopenta[c]pyrrol-2-yl)-3-(4-methylphenyl) sulfonylurea]",drug interaction with Doxorubicin,[1]; [6],strong or very strong synergy
"Cc1ccc(S(=O)(=O)NC(=O)NN2CCCCCC2)cc1 [Tolazamide, 1-(azepan-1-yl)-3-(4-methylphenyl) sulfonylurea]",drug interaction with Doxorubicin,[1]; [6],strong or very strong synergy
"CCCNC(=O)NS(=O)(=O)c1ccc(Cl)cc1 [Chlorpropamide, 1-(4-chlorophenyl) sulfonyl-3-propylurea]",drug interaction with Doxorubicin,[1]; [6],strong or very strong synergy
COc1ccc(Cl)cc1C(=O)NCCc1ccc(S(=O)(=O)NC(=O)NC2CCCCC2)cc1 [Glyburide],drug interaction with Doxorubicin,[1]; [6],strong or very strong synergy
same,effect in MDA-MB-231 cells,[2],cytostatic effect
COc1ccc2c(c1)C(=O)N(CCc1ccc(S(=O)(=O)NC(=O)NC3CCCCC3)cc1)C(=O)C2(C)C [Gliquidone],drug interaction with Doxorubicin,[1]; 100 μM analog in combination with Doxorubicin (0.225-0.900 μM),additive effect or slight antagonism
same,drug interaction with Doxorubicin,"[1]; Gliquidone with Doxorubicin, dose combinations other than 100 μM",synergistic effects
"COc1cccc2c1C(=O)c1c(O)c3c(c(O)c1C2=O)C[C@@](O)(C(=O)CO)C[C@@H]3O[C@H]1C[C@H](N)[C@H](O)[C@H](C)O1 [Doxorubicin, (7S,9S)-7-[(2R,4S,5S,6S)-4-amino-5-hydroxy-6 methyloxan-2-yl]oxy-6,9,11-trihydroxy-9-(2-hydroxyacetyl)-4-methoxy-8,10-dihydro-7H tetracene-5,12-dione]",viability at 0.52 µM,[3],75.6%
same,clinical results vs systemic administration,"[4]; intracerebral administration, stage III or IV gliomas, Ommaya reservoir",Significantly better results
same,"clinical efficacy in certain brain tumors, such as gliomas",[4]; systemic administration,very limited efficacy
same,neurotoxicity,[4]; very high systemic doses,highly neurotoxic
same,incidence of congestive heart failure,[5],lower incidence of congestive heart failure

# From US20260373169A1, “SYNERGISTIC COMBINATION FOR THE TREATMENT OF CANCER” (FUNDACIÓN UNIVERSITARIA SAN ANTONIO (UCAM), priority 2023, published 2026)
